Tested on: HEK293T cells carrying the ATF4 luciferase reporter
Test: ATF4-Luc assay, in vitro model of Vanishing Cell White Matter Disease (VWMD)
Type: cell-based
Settings: Homo sapiens, HEK-293T, 1 μg/mL tunicamycin, 7 hours, One Glo luminescence
Method in brief: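 Stable HEK293T line with human ATF4 5′-UTR–firefly luciferase reporter treated with 1 μg/mL tunicamycin plus 200 nM compound for 7 h. Luminescence read; EC50 derived.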

SMILES | EC50
Cc1cnoc1C(=O)NC12CC(NC(=O)COc3ccc(Cl)c(F)c3)(C1)C2 [Compound 367, N-{3-[2-(4-chloro-3-fluorophenoxy)acetamido]bicyclo[1.1.1]pentan-1-yl}-4-methyl-1,2-oxazole-5-carboxamide] | > 2000 nM
Cc1cc2c(NC34CC(NC(=O)COc5ccc(OC(F)(F)F)cc5)(C3)C4)nccn2n1 [Compound 423, N-{3-[(2-methylpyrazolo[1,5-a]pyrazin-4-yl)amino]bicyclo[1.1.1]pentan-1-yl}-2-[4-(trifluoromethoxy)phenoxy]acetamide] | 250 to 1000 nM
Cc1cc(C(=O)NC23CCC(NC(=O)COc4ccc(Cl)c(F)c4)(CC2)C(O)C3)on1 (stereo not shown) [Compound 326, N-{4-[2-(4-chloro-3-fluorophenoxy)acetamido]-3-hydroxybicyclo[2.2.2]octan-1-yl}-3-methyl-1,2-oxazole-5-carboxamide] | 50 to 250 nM
CSc1nccc(C(=O)NC23CC(NC(=O)COc4ccc(Cl)c(F)c4)(C2)C3)n1 [Compound 838, N-{3-[2-(4-chloro-3-fluorophenoxy)acetamido]bicyclo[1.1.1]pentan-1-yl}-2-(methylsulfanyl)pyrimidine-4-carboxamide] | 50 to 250 nM
Cn1nc(C(F)(F)F)cc1C(=O)NC12CC(NC(=O)COc3ccc(Cl)c(F)c3)(C1)C2 [Compound 582, N-{3-[2-(4-chloro-3-fluorophenoxy)acetamido]bicyclo[1.1.1]pentan-1-yl}-1-methyl-3-(trifluoromethyl)-1H-pyrazole-5-carboxamide] | 50 to 250 nM
COc1ccc(F)c(C(=O)NC23CC(NC(=O)COc4ccc(Cl)c(F)c4)(C2)C3)c1 [Compound 520, N-{3-[2-(4-chloro-3-fluorophenoxy)acetamido]bicyclo[1.1.1]pentan-1-yl}-2-fluoro-5-methoxybenzamide] | 250 to 1000 nM
O=C(COc1ccc(Cl)c(F)c1)NC12CCC(NC(=O)c3ccno3)(CC1)C(O)C2 (stereo not shown) [Compound 215, N-{4-[2-(4-chloro-3-fluorophenoxy)acetamido]-2-hydroxybicyclo[2.2.2]octan-1-yl}-1,2-oxazole-5-carboxamide] | 50 to 250 nM
Cc1nc(C(=O)NC23CCC(NC(=O)COc4ccc(Cl)c(F)c4)(CC2)C(O)C3)ccc1C#N (stereo not shown) [Compound 916, N-{4-[2-(4-chloro-3-fluorophenoxy)acetamido]-3-hydroxybicyclo[2.2.2]octan-1-yl}-5-cyano-6-methylpyridine-2-carboxamide] | 50 to 250 nM
COc1cc(C(=O)NC23CC(NC(=O)COc4ccc(Cl)c(Cl)c4)(C2)C3)on1 [Compound 709, N-{3-[2-(3,4-dichlorophenoxy)acetamido]bicyclo[1.1.1]pentan-1-yl}-3-methoxy-1,2-oxazole-5-carboxamide] | 50 to 250 nM
O=C(COc1ccc(Cl)c(F)c1)NC12CCC(NC(=O)c3coc(C(F)(F)F)c3)(CC1)CC2O (stereo not shown) [Compound 566, N-{4-[2-(4-chloro-3-fluorophenoxy)acetamido]-3-hydroxybicyclo[2.2.2]octan-1-yl}-5-(trifluoromethyl)furan-3-carboxamide] | < 50 nM
Cc1c(Cl)c(C(=O)NC23CC(NC(=O)COc4ccc(Cl)c(F)c4)(C2)C3)nn1C [Compound 780, 4-chloro-N-{3-[2-(4-chloro-3-fluorophenoxy)acetamido]bicyclo[1.1.1]pentan-1-yl}-1,5-dimethyl-1H-pyrazole-3-carboxamide] | > 2000 nM
O=C(COc1ccc(Cl)c(Cl)c1)NC12CC(NC(=O)c3cc(CCO)ccn3)(C1)C2 [Compound 281, N-{3-[2-(3,4-dichlorophenoxy)acetamido]bicyclo[1.1.1]pentan-1-yl}-4-(2-hydroxyethyl)pyridine-2-carboxamide] | 50 to 250 nM
COCC(=O)Nc1ccccc1C(=O)NC12CC(NC(=O)COc3ccc(Cl)c(F)c3)(C1)C2 [Compound 887, N-{3-[2-(4-chloro-3-fluorophenoxy)acetamido]bicyclo[1.1.1]pentan-1-yl}-2-(2-methoxyacetamido)benzamide] | 250 to 1000 nM
